The source of these data is ChEMBL document CHEMBL1126116, “Synthesis and antibronchospastic activity of 8-alkoxy- and 8-(alkylamino)imidazo[1,2-a]pyrazines” (J Med Chem, 1992).

Data set [1] is described as follows: Compound was tested for it's acute toxicity in mice when given orally. The class given is organism-based. The conditions noted are these: mouse, in vivo, po.
Data set [2] deals with Mus musculus. Put plainly: Locomotor activity (no. light beam crossings in 50 min) in mice by intravenous dose at 166 umol/kg. The class given is functional.
Data set [3] deals with Mus musculus. Put plainly: Locomotor activity (no. light beam crossings in 50 min) in mice by intravenous dose at 55 umol/kg. The class given is functional.
Another data set addresses Heart phosphodiesterase (Bos taurus, UniProt Q01061+P14100+E1BN64). Kind of data set: Inhibition of bovine heart phosphodiesterase. The class given is protein assay.
The species named for data set [4] is Rattus norvegicus. Kind of data set: Inhibition of spontaneous contraction of isolated rat uterus. The class given is functional. As to conditions: read-out: ED50 (the source's name).
For data set [5], the species on record is Rattus norvegicus. Put plainly: (§1) Inhibition of carbachol induced tracheal contraction. The class given is functional. The conditions noted are these: Trachea, read-out: ED50 (the source's name).
Data set [6] in a line: Compound was tested for its acute toxicity in mice when given orally. The class given is organism-based. The conditions noted are these: mouse, in vivo, po.
The next data set is filed under the species Cavia porcellus. Described as §1. The class given is functional. The conditions noted are these: Trachea, read-out: ED50 (the source's name).

Molecules are shown by their SMILES.

Broadly, the LD50 is the dose expected to kill half of the subjects tested. As usually defined, the IC50 is the concentration at which inhibition is half-maximal. The low end stands for greater potency in that assay, the high end for weaker potency in that assay. Consider `Nc1nc(Br)cn2ccnc12`, for which the LD50 in data set [1] amounted to 1300 µmol/kg. The results for the Activity in the data set with Mus musculus [2] and in the data set with Mus musculus [3] were -83% and -53%, respectively. The same compound showed a concentration for half-maximal inhibition (IC50) against Heart phosphodiesterase of 267 µM. For the same compound, the figures for the EC50 in the data set listed under Rattus norvegicus [4] and in the data set listed under Rattus norvegicus [5] were 300 µM and 93 µM, respectively.

In turn, `CNc1nc(Br)cn2cc(C#N)nc12` gave an LD50 in data set [1] of 500 µmol/kg. In the data set on Mus musculus [3], the Activity was -64%. The same compound came in with a concentration for half-maximal inhibition (IC50) against Heart phosphodiesterase of 70 µM. The EC50 in the data set listed under Rattus norvegicus [4] and in the data set listed under Rattus norvegicus [5] was 2 µM in each case.

In data set [1], `CNc1nc(Br)cn2ccnc12` showed an LD50 of 2200 µmol/kg. For the same compound, the Activity was -83% with Mus musculus [2] and -75% in the data set with Mus musculus [3]. Further, at Heart phosphodiesterase, the concentration for half-maximal inhibition (IC50) was determined as 27 µM. Besides, the results for the EC50 in the data set listed under Rattus norvegicus [4] and in the data set filed under Rattus norvegicus [5] were 160 µM and 24 µM, respectively.

For the compound `CCNc1nc(Br)cn2ccnc12`, in data set [1], the LD50 was 2900 µmol/kg. The Activity in the data set on Mus musculus [2] was -73%; with Mus musculus [3], -13%. Besides, at Heart phosphodiesterase, the half-inhibitory concentration (IC50) turned out to be 81 µM. The EC50 in the data set filed under Rattus norvegicus [4] came out at 130 µM; in the data set listed under Rattus norvegicus [5] it was 65 µM.

Regarding `CNc1nccn2c(Br)cnc12`, the Activity is on record as -57% with Mus musculus [2] and -25% with Mus musculus [3]. In data set [6], this compound showed a 50% lethal dose (LD50) of 4200 µmol/kg. For the same compound, at Heart phosphodiesterase, the half-inhibitory concentration (IC50) was found to be 337 µM. Also, the EC50 in the data set filed under Rattus norvegicus [4] turned out to be 100 µM; in the data set filed under Cavia porcellus, 97 µM.

`Cn1c(=O)c2nc[nH]c2n(C)c1=O.O` [THEOPHYLLINE]: the LD50 in data set [1] came out at 1900 µmol/kg. For the same compound, the Activity is 170% in the data set with Mus musculus [2] and 130% in the data set on Mus musculus [3]. Besides, the IC50 at Heart phosphodiesterase turned out to be 92 µM. Further, the values for the EC50 in the data set listed under Rattus norvegicus [4] and in the data set listed under Rattus norvegicus [5] were 900 µM and 920 µM, respectively.
